Results taken from paper PMC6042199, “Inhibitory effects against α-glucosidase and α-amylase of the flavonoids-rich extract from Scutellaria baicalensis shoots and interpretation of structure–activity relationship of its eight flavonoids by a refined assign-score method” (Chemistry Central Journal, 2018).
Values after ≈ are worked out from the molar mass of the structure shown.

Columns and labels:
[1] = tested on: yeast α-glucosidase from Saccharomyces cerevisiae; assay: α-glucosidase inhibitory effect (pNPG, AUC of absorbance at 405 nm); assay type: biochemical; conditions: for IC50 α-Glucosidase: mean ± SD of three repeated tests, logarithmic regression; for Inhibitory effects α-glucosidase (acarbose equivalents): converted into acarbose equivalents
Description: (§1) All solvents (analytical grade) were bought from Beijing Chemical Factory, and purified water was from a mili-Q system (Millipore, Billerica, MA).
α-Glucosidase inhibitory effect was assayed as reported by Zhang et al.. […] Then, 30 μL pNPG solution (2 mM pNPG in 0.1 mM phosphate buffer) was added quickly to initiate the enzyme reaction. Absorbance was monitored at 405 nm every 15 min for 2 h using a microplate reader (Tecan infinite 200, Swiss).

α-glucosidase enzyme = tested on: α-glucosidase enzyme; set-up: method as in doi:10.1007/978-3-642-73461-8_2; conditions: cited from earlier work
[2] = target: T1, porcine pancreatic α-amylase (Sus scrofa, UniProt P00690); assay: α-amylase inhibitory effect (starch, dinitrosalicylic acid, 540 nm); assay type: biochemical; conditions: for Contribution to the overall enzyme inhibitory effect of the extract, α-amylase: Contribution = [Ei/E0] × C × 100; for Inhibitory effects α-amylase (acarbose equivalents): converted into acarbose equivalents; for IC50: mean ± SD of three repeated tests, logarithmic regression
T1 construct: purchased Sigma-Aldrich Co. (St. Louis, MO, USA)
T1 sequence (P00690 16-511): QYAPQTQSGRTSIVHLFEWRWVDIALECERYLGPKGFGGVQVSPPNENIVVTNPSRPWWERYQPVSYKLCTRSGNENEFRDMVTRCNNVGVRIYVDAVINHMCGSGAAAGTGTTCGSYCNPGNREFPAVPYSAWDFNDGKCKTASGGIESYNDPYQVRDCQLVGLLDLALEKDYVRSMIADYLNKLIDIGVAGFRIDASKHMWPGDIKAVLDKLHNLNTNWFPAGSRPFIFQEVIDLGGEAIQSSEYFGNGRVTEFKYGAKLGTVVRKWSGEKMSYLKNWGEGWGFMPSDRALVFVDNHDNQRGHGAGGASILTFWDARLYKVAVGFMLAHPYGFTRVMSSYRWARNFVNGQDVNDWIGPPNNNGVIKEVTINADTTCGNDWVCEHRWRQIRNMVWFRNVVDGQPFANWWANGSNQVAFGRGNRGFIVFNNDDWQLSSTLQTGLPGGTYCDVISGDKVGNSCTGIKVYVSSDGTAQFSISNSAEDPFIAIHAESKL
Description: as §1
After incubation for 20 min at 37 °C, 300 μL starch solution (1%) in sodium phosphate buffer (0.02 M, pH 6.9 with 6 mM NaCl) was added, and the mixture was re-incubated for 20 min, followed by addition of 0.2 mL dinitrosalicylic acid. The new mixture was then boiled for 5 min and cooled to room temperature. Cooled mixture was diluted by adding 10 mL distilled water, and absorbance was measured at 540 nm using a UV–visible spectrophotometer (Shimadzu UV-1700, Japan). […] IC50 values were calculated by the logarithmic regression analysis.

| Compound | Inhibitory effects α-glucosidase (acarbose equivalents) [1] [μg acarbose/μg] | final inhibitory effect against α-glucosidase ([1]; at 2 mg/mL) [%] | IC50 α-Glucosidase [1] [µg/mL] | affinity exceeding that of the normal substrate, factor (α-glucosidase enzyme) | inhibition at 2000 µg/mL ([2]; read-out: inhibition of α-amylase) [%] | Contribution to the overall enzyme inhibitory effect of the extract, α-amylase [2] [%] | Inhibitory effects α-amylase (acarbose equivalents) [2] [μg acarbose/μg] | IC50 [2] [µM] |
| --- | --- | --- | --- | --- | --- | --- | --- | --- |
| C[C@H]1O[C@H](O[C@H]2[C@H](O)[C@@H](O)[C@@H](O[C@H]3[C@H](O)[C@@H](O)C(O)O[C@@H]3CO)O[C@@H]2CO)[C@H](O)[C@@H](O)[C@@H]1N[C@H]1C=C(CO)[C@@H](O)[C@H](O)[C@H]1O (stereo partly drawn) [Acarbose, acarbose, reference compound] | – | 68.66 | 996.02 ± 21.34 (≈ 1540 µM) | 10^4–10^5 | 69.9 | – | – | – |
| O=c1cc(-c2ccccc2)oc2cc(O)c(O)c(O)c12 [Baicalein, baicalein] | 3.58 ± 0.07 | – | 277.94 ± 6.21 (≈ 1030 µM) | – | – | 23.37 ± 0.98 | 2.07 ± 0.02 | 1240 |
| O=C(O)[C@H]1O[C@@H](Oc2cc3oc(-c4ccccc4)cc(=O)c3c(O)c2O)[C@H](O)[C@@H](O)[C@@H]1O [Baicalin, baicalin] | 1.68 ± 0.02 | – | 591.58 ± 12.21 (≈ 1330 µM) | – | – | 4.95 ± 0.13 | 1.03 ± 0.01 | 1480 |
| O=C(O)[C@H]1O[C@@H](Oc2cc3oc(-c4ccc(O)cc4)cc(=O)c3c(O)c2O)[C@H](O)[C@@H](O)[C@@H]1O [Scutellarin, scutellarin] | 3.18 ± 0.06 | – | 313.25 ± 7.28 (≈ 677 µM) | – | – | 14.80 ± 0.66 | 1.84 ± 0.02 | 799 |

Continued, in another order:

| Inhibitory effects α-glucosidase (acarbose equivalents) [1] [μg acarbose/μg] | Compound | final inhibitory effect against α-glucosidase ([1]; at 2 mg/mL) [%] | IC50 α-Glucosidase [1] [µg/mL] | affinity exceeding that of the normal substrate, factor (α-glucosidase enzyme) | inhibition at 2000 µg/mL ([2]; read-out: inhibition of α-amylase) [%] | Contribution to the overall enzyme inhibitory effect of the extract, α-amylase [2] [%] | Inhibitory effects α-amylase (acarbose equivalents) [2] [μg acarbose/μg] | IC50 [2] [µM] |
| --- | --- | --- | --- | --- | --- | --- | --- | --- |
| 1.83 ± 0.02 | O=C(O)[C@H]1O[C@@H](Oc2cc(O)c3c(=O)cc(-c4ccc(O)cc4)oc3c2)[C@H](O)[C@@H](O)[C@@H]1O [Apigenin-7-O-G, apigenin-7-O-glucuronide] | – | 543.28 ± 11.41 (≈ 1220 µM) | – | – | 2.74 ± 0.09 | 1.04 ± 0.01 | 1470 |
| 4.31 ± 0.08 | O=c1cc(-c2ccc(O)cc2)oc2cc(O)cc(O)c12 [Apigenin] | – | 231.13 ± 5.35 (≈ 855 µM) | – | – | – | – | – |
| 2.36 ± 0.03 | O=c1cc(-c2ccccc2)oc2cc(O)cc(O)c12 [Chrysin, chrysin] | – | 422.67 ± 9.37 (≈ 1660 µM) | – | – | 6.91 ± 0.21 | 1.51 ± 0.02 | 1770 |
| 1.63 ± 0.01 | O=C(O)[C@H]1O[C@@H](Oc2cc(O)c3c(=O)cc(-c4ccccc4)oc3c2)[C@H](O)[C@@H](O)[C@@H]1O [Chrysin-7-O-G, chrysin-7-O-glucuronide] | – | 612.13 ± 15.34 (≈ 1420 µM) | – | – | 2.63 ± 0.07 | 0.69 ± 0.01 | 2280 |
